# Data: patent US20230225999A1, “A NUTRITIONAL COMPOSITION COMPRISING 3-HYDROXYBUTYRIC ACID TO IMPROVE THE GASTROINTESTINAL BARRIER” (priority 2020, published 2023)
# Test system: co-culture cell-line model of intestinal epithelial cells containing Caco-2 and HT29-MTX cells
# Test: Direct effect of 3-hydroxybutyric acid on inflammation-induced epithelial barrier dysfunction (FD4 translocation)
# Assay type: cell-based, human
# Settings: 10 μM apical, 36 hours pre-treatment, then TNF-α (2.5 ng/ml) and IFN-γ (10 ng/ml) for 48 hours
# Experimental: The human Caco-2 and HT29-MTX cell lines were obtained from the American Type Culture Collection (ATCC) and the European Collection of Authenticated Cell Cultures (ECACC), respectively. Caco-2 cell and HT29-MTX were maintained separately in culture flasks at 37° C. under humidified 10% CO2 atmosphere in Dulbecco's […] (DMEM) supplemented with GlutaMAX (Invitrogen), 1% […], 100 μg/ml streptomycin, 100 UI/ml penicillin and heat inactivated fetal bovine serum (FBS; 15% for Caco-2 and 10% for HT29-MTX). To make co-culture for epithelial barrier studies, each cell lines were expanded in their respective flasks until 90% confluent monolayers were reached. Cell lines are then trypsinized with 1× trypsin. Co-culture of Caco-2 and HT29-MTX were seeded at 6×10^4/cm^2 on 1.12 cm^2 Transwell Polycarbonate semi-permeable membranes (0.4 μm) and grown in DMEM supplemented with GlutaMAX, 1% minimum essential media, 100 μg/ml streptomycin, 100 UI/ml penicillin and 10% heat inactivated FBS for 21 days. […] At the end of the experiment, translocation of the FITC-labeled dextran (4000 Da) from the apical to basolateral compartment was quantified within a 2-hour period. FD4 translocation data were analysed by using the two-sided two-sample Student t-test assuming unequal variances.
compound,measurement,value
CC(O)CC(=O)O (stereo not shown) [3-hydroxybutyric acid],Epithelial barrier intactness: translocation of FITC-labeled dextran (FD4) from apical to basolateral compartment relative to control +ve (FIG. 6),protect the barrier against inflammation-induced epithelial barrier hyperpermeability
